Assay results from PMC5154685 (Journal of medicinal chemistry, 2016).

Tests used:
[1] = biological target: Eis_Mtb acetyltransferase (Mycobacterium tuberculosis, UniProt P9WFK7); type: biochemical; conditions: for Extent of Eis inhibition of HTS compounds (in words): follow-up description
[2] = biological target: AAC(6′)-Ie/APH(2″)-Ia (Staphylococcus aureus, UniProt P0A0C1); assay: Inhibitor selectivity, AAC; type: biochemical; conditions: concentrations as high as 200 μM
[3] = biological target: AAC(2′)-Ic (Mycobacterium tuberculosis, UniProt P9WQG9); assay: Inhibitor selectivity, AAC
Chain of AAC(2′)-Ic (P9WQG9 whole entry): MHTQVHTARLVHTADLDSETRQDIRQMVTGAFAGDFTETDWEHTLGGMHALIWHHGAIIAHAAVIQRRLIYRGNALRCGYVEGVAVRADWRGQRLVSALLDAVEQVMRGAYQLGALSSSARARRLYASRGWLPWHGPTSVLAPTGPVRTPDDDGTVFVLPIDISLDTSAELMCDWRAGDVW

Chain of Eis_Mtb acetyltransferase (P9WFK7 whole entry): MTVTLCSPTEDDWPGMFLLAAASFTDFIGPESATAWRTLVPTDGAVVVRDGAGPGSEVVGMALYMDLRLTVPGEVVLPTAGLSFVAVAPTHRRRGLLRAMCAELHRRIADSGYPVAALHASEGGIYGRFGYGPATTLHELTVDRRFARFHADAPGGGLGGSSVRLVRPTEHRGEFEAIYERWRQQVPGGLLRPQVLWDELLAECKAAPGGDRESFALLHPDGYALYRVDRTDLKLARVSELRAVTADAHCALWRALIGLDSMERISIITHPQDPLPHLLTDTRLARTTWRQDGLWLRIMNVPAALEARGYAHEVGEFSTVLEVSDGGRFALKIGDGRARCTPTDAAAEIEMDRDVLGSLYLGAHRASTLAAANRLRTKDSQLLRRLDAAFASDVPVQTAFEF
Chain of AAC(6′)-Ie/APH(2″)-Ia (P0A0C1 whole entry): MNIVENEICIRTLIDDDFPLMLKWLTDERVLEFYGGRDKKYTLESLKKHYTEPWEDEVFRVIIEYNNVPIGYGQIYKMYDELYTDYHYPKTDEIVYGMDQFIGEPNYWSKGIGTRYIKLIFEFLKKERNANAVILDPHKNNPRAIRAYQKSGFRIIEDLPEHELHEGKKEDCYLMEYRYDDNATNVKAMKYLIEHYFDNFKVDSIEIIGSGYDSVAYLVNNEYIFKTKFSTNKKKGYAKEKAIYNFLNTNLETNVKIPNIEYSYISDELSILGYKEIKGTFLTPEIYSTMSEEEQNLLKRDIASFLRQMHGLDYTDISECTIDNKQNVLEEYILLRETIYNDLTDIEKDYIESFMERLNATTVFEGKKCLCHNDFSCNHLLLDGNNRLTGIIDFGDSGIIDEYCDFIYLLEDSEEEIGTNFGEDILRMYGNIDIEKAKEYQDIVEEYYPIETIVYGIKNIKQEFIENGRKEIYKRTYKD

Structure (SMILES) | Extent of Eis inhibition of HTS compounds (in words) [1] | inhibition of acetylation by AAC(6′)-Ie/APH(2″)-Ia (in words) [2] | also measured
Cc1cc(NS(=O)(=O)c2ccc3[nH]c(=O)c(=O)[nH]c3c2)ccc1Br [Compound 1] | modest Eis inhibition | – | –
O=c1[nH]c2ccc(S(=O)(=O)Nc3ccc(Cl)c(C(F)(F)F)c3)cc2[nH]c1=O [Compound 3] | modest Eis inhibition | – | –
O=c1[nH]c2ccc(S(=O)(=O)Nc3ccc4c(c3)OCCO4)cc2[nH]c1=O [Compound 4] | modest Eis inhibition | – | –
CN(c1ccc(Br)cc1)S(=O)(=O)c1ccc2[nH]c(=O)c(=O)[nH]c2c1 [Compound 29, N-(4-Bromophenyl)-N-methyl-2,3-dioxo-1,2,3,4-tetrahydro-6-quinoxalinesulfonamide] | – | – | Eis inhibition in the HTS (hit or not) [1]: hits
COc1cccc(N(C)S(=O)(=O)c2ccc3[nH]c(=O)c(=O)[nH]c3c2)c1 [Compound 39, N-(3-Methoxyphenyl)-N-methyl-2,3-dioxo-1,2,3,4-tetrahydro-6-quinoxalinesulfonamide] | – | did not inhibit | –
CN(c1ccc2ccccc2c1)S(=O)(=O)c1ccc2[nH]c(=O)c(=O)[nH]c2c1 [Compound 46, N-(2-Naphthyl)-N-methyl-2,3-dioxo-1,2,3,4-tetrahydro-6-quinoxalinesulfonamide] | – | did not inhibit | inhibition of acetylation by AAC(2′)-Ic (in words) [3]: did not inhibit
